# Values quoted from earlier work in patent publication US20150290272A1, “PHARMACEUTICAL COMPOSITION FOR PREVENTING/TREATING BRAIN INJURY AND ENHANCING RECOVERY OF SEQUELAE AND MANUFACTURE THEREOF” (PhytoHealth Corporation, priority 2014, published 2015).
# Test system: acute ischemic stroke
substance,measurement,setting,value
rtPA: thrombolysis agent recombinant tissue plasminogen activator (rt-PA) (Actilyse) for acute ischemic stroke,increase in the number of people living without disability,"at three to six months, 2014 review",5%
same,overall benefit with respect to living without disability,given within three hours of symptom onset,10%
same,increased risk of death,"in the short term, 2014 review",2%
same,people with large strokes who developed substantial brain hemorrhage as a complication,in vivo,6.4%
